ChEMBL document CHEMBL1201862, “PubChem BioAssay data set” (2004)
Active and inactive are the calls of the source.

Columns and labels:
[1] = target: T1, Adenosylmethionine-8-amino-7-oxononanoate aminotransferase (Mycobacterium tuberculosis, UniProt P9WQ81); test: Mycobacterium tuberculosis BioA enzyme inhibitor Measured in Biochemical System Using Plate Reader - 2163-02_Inhibitor_Dose_CherryPick_Activity.; assay type: functional, Mycobacterium tuberculosis UT205
T1 sequence (P9WQ81 whole entry): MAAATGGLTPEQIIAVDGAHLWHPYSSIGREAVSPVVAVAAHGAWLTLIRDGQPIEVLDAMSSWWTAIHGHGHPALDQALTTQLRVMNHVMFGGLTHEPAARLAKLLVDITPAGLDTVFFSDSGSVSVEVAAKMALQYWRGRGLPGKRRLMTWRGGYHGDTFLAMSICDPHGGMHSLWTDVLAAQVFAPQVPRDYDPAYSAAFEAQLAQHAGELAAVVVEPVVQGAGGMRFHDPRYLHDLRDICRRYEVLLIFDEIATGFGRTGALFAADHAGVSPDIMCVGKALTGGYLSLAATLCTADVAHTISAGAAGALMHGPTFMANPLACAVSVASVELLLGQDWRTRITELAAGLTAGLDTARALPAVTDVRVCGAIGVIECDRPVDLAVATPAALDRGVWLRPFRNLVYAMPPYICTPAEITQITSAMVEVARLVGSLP

Large T antigen = Large T antigen (Simian virus 40, UniProt P03070); assay type: functional, Betapolyomavirus macacae;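 also: Confirmatory-stage PubChem screen for compounds that inhibit SV40 T antigen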
[2] = target: Glucose-6-phosphate 1-dehydrogenase (Homo sapiens, UniProt P11413); test: human G6PD enzyme inhibitors, dose response, selectivity assay for P. falciparum G6PD inhibitor project, biochemical, fluorescence (AID 504792); assay type: functional
[3] = target: T2, Replicative DNA helicase DnaB (Mycobacterium tuberculosis, UniProt P9WMR3); test: DnaB intein splicing inhibitors, dose response, biochemical, cell-free fluorescence (AID 449749); assay type: functional
T2 sequence (P9WMR3 whole entry): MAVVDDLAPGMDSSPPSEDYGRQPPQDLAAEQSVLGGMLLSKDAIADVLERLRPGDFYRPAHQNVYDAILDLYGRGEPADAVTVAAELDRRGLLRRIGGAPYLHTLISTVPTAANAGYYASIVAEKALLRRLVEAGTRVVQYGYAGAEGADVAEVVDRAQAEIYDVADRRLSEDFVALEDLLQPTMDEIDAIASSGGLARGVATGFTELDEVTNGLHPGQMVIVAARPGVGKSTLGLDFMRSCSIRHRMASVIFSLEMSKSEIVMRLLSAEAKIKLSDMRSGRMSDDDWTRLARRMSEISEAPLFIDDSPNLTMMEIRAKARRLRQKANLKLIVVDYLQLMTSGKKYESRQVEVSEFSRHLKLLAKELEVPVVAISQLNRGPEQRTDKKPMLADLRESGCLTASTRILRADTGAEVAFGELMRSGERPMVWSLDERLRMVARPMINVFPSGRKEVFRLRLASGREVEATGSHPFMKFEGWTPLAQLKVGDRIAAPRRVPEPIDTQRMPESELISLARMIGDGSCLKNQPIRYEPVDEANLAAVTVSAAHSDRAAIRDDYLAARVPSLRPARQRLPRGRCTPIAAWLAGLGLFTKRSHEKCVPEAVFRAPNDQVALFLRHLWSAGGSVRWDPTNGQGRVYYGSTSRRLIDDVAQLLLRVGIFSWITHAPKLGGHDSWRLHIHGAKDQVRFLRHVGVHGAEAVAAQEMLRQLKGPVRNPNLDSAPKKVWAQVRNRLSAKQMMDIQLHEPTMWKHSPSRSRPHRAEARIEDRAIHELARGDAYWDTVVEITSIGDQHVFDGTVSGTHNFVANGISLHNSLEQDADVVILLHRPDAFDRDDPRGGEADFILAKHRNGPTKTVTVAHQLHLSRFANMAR

Protein RecA = target: T3, Protein RecA (Mycobacterium tuberculosis, UniProt P9WHJ3); test: Fluorescence Cell-Free Homogeneous Dose Retest to Identify Inhibitors of RecA-Intein Splicing Activity. [Related pubchem assays (depositor defined):AID2097, AID2223, AID489010, AID492950]; assay type: functional
T3 sequence (P9WHJ3 whole entry): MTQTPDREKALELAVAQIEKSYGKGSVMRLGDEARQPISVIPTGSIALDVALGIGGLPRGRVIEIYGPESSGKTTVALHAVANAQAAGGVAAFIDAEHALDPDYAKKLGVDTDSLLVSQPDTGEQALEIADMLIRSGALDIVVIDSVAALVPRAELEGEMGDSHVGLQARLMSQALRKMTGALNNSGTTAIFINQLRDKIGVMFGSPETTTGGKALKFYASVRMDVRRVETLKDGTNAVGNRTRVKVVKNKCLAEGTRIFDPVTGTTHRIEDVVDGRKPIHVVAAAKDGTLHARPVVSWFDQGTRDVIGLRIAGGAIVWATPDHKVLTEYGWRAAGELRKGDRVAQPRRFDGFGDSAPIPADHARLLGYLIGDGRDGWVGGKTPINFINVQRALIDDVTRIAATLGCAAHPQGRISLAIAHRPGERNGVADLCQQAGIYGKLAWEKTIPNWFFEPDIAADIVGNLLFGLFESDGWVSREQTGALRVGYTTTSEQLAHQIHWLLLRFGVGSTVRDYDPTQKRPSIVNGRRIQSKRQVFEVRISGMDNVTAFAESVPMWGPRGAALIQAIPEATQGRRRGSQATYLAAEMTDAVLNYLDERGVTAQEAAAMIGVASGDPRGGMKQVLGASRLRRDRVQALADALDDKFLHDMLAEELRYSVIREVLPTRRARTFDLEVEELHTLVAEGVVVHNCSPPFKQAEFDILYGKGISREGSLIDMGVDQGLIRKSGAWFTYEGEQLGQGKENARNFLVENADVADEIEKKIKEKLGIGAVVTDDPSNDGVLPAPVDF

Beta-galactosidase = Beta-galactosidase (Escherichia coli, UniProt Q8VNN2); test: PubChem AID 485352; assay type: functional
[4] = target: T4, Type-1 angiotensin II receptor (Homo sapiens, UniProt P30556); test: AT1 receptor antagonists, dose response, selectivity assay for APJ receptor antagonist project, cell-based, uHTS hits (AID 463214); assay type: functional;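 also: antagonist potency against angiotensin II stimulated AT1 response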
T4 sequence (P30556 whole entry): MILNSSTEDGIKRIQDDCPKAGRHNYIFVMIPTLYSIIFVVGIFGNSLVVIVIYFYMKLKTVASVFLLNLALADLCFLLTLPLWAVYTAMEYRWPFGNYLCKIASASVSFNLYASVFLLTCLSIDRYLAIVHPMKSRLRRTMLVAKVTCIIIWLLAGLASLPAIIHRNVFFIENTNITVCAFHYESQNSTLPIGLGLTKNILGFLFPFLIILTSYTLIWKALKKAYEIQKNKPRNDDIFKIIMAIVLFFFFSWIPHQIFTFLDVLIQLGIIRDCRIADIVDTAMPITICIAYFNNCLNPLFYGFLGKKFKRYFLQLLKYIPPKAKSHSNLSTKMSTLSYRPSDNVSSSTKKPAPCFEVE

[5] = target: T5, Small ubiquitin-related modifier 1 (Homo sapiens, UniProt P63165); test: inhibitors of SUMO1 peptide binding, dose response, biochemical, fluorescence polarization, uHTS hits (AID 624382); assay type: functional; settings: read-out: IC50_Mean
[6] = target: T5, Small ubiquitin-related modifier 1; test: inhibitors of SUMO1 partner interactions, dose response, biochemical, FRET (AID 624383); assay type: functional; settings: read-out: IC50_Mean
[7] = test system: Streptococcus sp. 'group A'; test: growth inhibition of control SK(-) GAS strain, dose response, counter-screen for streptokinase expression inhibitor project, luminescence, kanamycin, BacTiterGlo, confirmation (AID 1900); assay type: functional, organism-based
Streptokinase A = target: T6, Streptokinase A (Streptococcus pyogenes serotype M1, UniProt P10520); test: S. pyogenes streptokinase expression inhibitors, potency, dose response, plasminogen activation absorbance, OD405 (AID 1914); assay type: functional, Streptococcus pyogenes M1 GAS;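 also: secreted streptokinase activity via plasminogen activation per viability signal from cell pellet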
T6 sequence (P10520 whole entry): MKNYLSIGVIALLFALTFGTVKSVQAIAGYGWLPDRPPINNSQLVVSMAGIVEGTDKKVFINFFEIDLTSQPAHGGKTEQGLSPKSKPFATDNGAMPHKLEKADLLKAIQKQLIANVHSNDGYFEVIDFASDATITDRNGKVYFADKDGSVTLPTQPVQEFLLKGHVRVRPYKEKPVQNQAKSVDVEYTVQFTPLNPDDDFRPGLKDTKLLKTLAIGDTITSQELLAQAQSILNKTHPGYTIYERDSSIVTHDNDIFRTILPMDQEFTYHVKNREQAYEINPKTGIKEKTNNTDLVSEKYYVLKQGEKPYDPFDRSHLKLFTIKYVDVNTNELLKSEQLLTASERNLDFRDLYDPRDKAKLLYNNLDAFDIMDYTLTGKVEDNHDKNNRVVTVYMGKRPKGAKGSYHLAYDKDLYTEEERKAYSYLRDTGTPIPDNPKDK

Streptococcus = test: Group A Streptococcus viability loss, dose response, counter-screen for streptokinase expression inhibitor project, luminescence, BacTiterGlo (AID 1915); assay type: functional, organism-based;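 also: potency for reduction of bacterial viability or growth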
Mu-type opioid receptor = Mu-type opioid receptor (Homo sapiens, UniProt P35372); assay type: functional, cell-based;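 also: U2OS cells with beta-arrestin recruitment to OPRM1 by beta-gal complementation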
[8] = target: 5-hydroxytryptamine receptor 2A (Mus musculus, UniProt P35363); assay type: functional, cell-based;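 also: CHO-K1 cells with tagged receptor and beta-arrestin; agonist potency measured as compound-induced activation of the receptor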
Chain of 5-hydroxytryptamine receptor 2A (P35363 whole entry): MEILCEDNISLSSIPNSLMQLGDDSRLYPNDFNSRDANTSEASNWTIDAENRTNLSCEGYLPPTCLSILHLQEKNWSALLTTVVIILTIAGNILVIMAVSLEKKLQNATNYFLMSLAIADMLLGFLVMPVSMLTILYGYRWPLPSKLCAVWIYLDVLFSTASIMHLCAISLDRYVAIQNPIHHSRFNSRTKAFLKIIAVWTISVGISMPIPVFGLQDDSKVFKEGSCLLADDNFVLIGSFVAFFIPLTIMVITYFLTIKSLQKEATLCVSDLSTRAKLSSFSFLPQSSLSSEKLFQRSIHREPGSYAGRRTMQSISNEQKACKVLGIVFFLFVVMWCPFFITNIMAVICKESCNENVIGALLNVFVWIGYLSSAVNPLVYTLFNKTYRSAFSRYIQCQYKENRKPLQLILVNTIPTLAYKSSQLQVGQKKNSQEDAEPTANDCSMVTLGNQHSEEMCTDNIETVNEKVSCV

T5 sequence (P63165 whole entry): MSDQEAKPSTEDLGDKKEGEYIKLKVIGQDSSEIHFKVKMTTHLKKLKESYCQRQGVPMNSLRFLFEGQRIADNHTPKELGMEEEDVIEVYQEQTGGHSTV
Chain of Beta-galactosidase (Q8VNN2 whole entry): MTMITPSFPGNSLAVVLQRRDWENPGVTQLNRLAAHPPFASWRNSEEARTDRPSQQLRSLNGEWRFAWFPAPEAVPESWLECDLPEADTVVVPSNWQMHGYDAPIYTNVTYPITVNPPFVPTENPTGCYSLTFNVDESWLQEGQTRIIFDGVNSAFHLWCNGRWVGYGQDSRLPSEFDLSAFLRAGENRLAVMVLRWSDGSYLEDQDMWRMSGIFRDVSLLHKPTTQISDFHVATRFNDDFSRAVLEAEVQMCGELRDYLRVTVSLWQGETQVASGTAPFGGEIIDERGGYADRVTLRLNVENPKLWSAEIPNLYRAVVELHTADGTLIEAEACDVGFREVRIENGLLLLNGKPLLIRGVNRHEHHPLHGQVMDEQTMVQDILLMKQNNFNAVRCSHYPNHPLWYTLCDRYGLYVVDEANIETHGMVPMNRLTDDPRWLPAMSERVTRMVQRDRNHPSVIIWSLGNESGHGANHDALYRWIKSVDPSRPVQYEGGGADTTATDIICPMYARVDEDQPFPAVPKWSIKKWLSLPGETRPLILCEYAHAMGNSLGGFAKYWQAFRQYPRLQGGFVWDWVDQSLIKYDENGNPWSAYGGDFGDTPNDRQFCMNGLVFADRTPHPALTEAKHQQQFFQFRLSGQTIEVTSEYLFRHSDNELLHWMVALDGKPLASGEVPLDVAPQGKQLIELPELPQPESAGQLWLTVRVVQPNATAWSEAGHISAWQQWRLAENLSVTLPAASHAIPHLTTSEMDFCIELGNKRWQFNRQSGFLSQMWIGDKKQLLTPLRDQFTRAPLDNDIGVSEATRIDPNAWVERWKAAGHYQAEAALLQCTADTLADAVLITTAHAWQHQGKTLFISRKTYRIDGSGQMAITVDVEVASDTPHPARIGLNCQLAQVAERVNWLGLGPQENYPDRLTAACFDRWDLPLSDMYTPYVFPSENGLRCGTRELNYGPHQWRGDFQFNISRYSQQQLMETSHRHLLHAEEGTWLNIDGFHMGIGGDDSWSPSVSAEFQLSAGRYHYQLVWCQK
Chain of Mu-type opioid receptor (P35372 whole entry): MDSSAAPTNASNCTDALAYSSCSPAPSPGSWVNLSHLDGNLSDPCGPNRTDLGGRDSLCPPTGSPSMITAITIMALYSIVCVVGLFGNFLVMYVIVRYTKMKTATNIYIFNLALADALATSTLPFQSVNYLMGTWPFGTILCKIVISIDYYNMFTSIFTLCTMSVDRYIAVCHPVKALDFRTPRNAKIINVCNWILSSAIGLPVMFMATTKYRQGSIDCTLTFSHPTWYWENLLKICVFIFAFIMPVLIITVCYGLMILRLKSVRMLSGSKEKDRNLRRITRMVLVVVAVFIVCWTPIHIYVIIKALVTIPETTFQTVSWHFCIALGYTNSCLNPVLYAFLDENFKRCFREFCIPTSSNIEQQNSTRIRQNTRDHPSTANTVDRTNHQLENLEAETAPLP
Chain of Glucose-6-phosphate 1-dehydrogenase (P11413 whole entry): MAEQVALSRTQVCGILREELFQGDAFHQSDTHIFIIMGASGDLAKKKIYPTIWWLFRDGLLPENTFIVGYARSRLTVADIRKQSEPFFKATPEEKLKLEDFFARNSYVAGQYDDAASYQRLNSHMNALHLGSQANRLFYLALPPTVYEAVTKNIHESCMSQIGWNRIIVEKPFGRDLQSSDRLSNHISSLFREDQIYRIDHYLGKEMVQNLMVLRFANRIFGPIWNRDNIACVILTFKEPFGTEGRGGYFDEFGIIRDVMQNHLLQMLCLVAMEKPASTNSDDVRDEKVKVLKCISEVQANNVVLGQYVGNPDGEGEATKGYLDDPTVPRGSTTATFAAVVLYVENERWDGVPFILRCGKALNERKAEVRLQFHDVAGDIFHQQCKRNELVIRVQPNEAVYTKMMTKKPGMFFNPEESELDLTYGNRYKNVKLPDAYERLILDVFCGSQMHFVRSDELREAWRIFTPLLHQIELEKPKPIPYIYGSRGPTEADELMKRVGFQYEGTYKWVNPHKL
Chain of Large T antigen (P03070 whole entry): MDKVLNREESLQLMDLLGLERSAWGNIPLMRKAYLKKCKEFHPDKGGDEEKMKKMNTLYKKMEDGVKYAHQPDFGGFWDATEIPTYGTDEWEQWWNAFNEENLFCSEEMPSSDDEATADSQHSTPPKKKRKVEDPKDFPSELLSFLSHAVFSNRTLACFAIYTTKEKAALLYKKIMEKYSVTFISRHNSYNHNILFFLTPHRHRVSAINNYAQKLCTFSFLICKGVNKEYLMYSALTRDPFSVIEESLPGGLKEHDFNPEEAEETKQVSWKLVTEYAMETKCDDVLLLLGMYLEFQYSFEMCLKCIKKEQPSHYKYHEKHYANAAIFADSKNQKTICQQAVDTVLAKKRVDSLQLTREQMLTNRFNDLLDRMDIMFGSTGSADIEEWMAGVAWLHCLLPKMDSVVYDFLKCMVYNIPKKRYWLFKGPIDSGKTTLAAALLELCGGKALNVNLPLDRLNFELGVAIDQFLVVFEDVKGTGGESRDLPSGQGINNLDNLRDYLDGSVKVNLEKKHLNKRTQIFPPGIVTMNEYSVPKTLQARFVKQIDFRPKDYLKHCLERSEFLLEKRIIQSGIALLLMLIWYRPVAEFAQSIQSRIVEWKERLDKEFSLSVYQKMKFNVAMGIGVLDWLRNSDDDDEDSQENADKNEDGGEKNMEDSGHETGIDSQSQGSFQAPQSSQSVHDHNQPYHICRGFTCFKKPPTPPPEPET

With `COc1ccc2c(c1)c(C(=O)CN1CCC3(CC1)OCCO3)c(C)n2Cc1ccccc1` the AC50 [1] was 3.41 µM (active).
For `CC1(C)Nc2ccc(O)cc2-c2c1ssc2=S`, the IC50 (Large T antigen) was > 100 µM (active), the IC50 [2] was > 80 µM (inactive) and the AC50 [3] was 9 µM (active). The EC50 (Protein RecA) was 0.998 µM (active).
`Cn1nnc(NC(=S)NC(=O)c2cccc3ccccc23)n1` was tested, and the EC50 (Beta-galactosidase) was > 40 µM (inactive) and the IC50 [4] was > 40 µM (not active).
`COc1ccc(Cl)cc1Nc1nc(-c2sc(NC(=O)CC(C)C)nc2C)cs1` was tested, and the IC50 [5] was > 66.6 µM (inactive) and the IC50 [6] was 14.8 µM (active).
With `Cn1c(O)c(N=Nc2nc(-c3ccccc3)cs2)c2ccccc21` the EC50 [7] was 3.21 µM (active), the EC50 (Beta-galactosidase) was > 40 µM (inactive) and the EC50 (Streptokinase A) was 7.09 µM (active). For the same compound, the IC50 [4] was > 40 µM (not active) and the EC50 (Streptococcus) was > 150 µM (not active).
For `Cc1ccc(CN2CCN(c3ncccn3)CC2)c(C)c1`, the EC50 (Mu-type opioid receptor) was 92.4 µM (inactive) and the EC50 [8] was 0.337 µM (active).
